Measurements: patent US20210346359A1, “Use of CFTR Modulators For Treating Cerebrovascular Conditions” (Qanatpharma AG, priority 2018, published 2021)
Entries after “also recorded” stand apart in the source; their conditions may differ.

Legend:
[1] = tested on: posterior cerebral arteries; experiment: Phenylephrine responses of isolated posterior cerebral arteries; assay type: in vivo, mouse
Description: Isolation and functional assessment of resistance arteries: Mouse olfactory (a first branch of the anterior cerebral artery) and PCAs were carefully dissected, cannulated onto micropipettes, stretched to their in vivo lengths and pressurized to 45 mmHg, as previously described (3,6); mouse skeletal muscle resistance arteries were dissected from the cremaster muscle, cannulated and pressurized to 60 mmHg. All functional experiments were conducted in 3-morpholinopropanesulfonic acid (MOPS) buffered saline at 37° C. with no perfusion. Vasomotor responses to phenylephrine (5 μmol/L for posterior cerebral arteries, 10 μmol/L for cremaster skeletal muscle arteries) provided an assessment of vessel viability at the beginning and end of each experiment. Arteries failing to show ≥25% constriction to phenylephrine were excluded.
Myogenic tone was calculated as the percent constriction in relation to the maximal diameter at each respective transmural pressure: tone (% of diamax)=[(diamax−diaactive)/diamax]×100, where diaactive is the vessel diameter in MOPS containing Ca^2+ and diamax is the diameter in Ca^2+-free MOPS. Analyses of vasomotor responses to phenylephrine used the same calculation, only in this case, diaactive represents the vessel diameter at steady state following application of the given agent and diamax represents the maximal diameter measured under Ca^2+-free conditions.

mice with heart failure = experiment: MRI T2 mapping of cerebral edema in heart failure mice; assay type: in vivo, mouse; settings: HF mice, 3 mg/kg daily for 2 days
Description: Magnetic resonance imaging-based edema measurement: Edema was assessed by quantitative T2 mapping (12), using a 7 Tesla micro-MRI system (Bruker Corporation Biospec 70/30 USR; Ettlingen, Germany). The T2 mapping acquisition generated quantitative T2 maps in 9 contiguous 2D axial slices, with 1 mm thickness, covering the volume from the fore-brain through to the hind-brain. T2 maps were generated from T2-weighted images at echo times from 12 to 384 ms, using in-line Bruker software, via linear regression of the logarithmically-transformed signal magnitudes and the echo times on a per voxel basis. The T2 values were extracted using MIPAV software, using manually drawn regions-of-interest placed within the fore-, middle- and hind-brain T2 maps.

wild-type CFTR = wild-type CFTR (Homo sapiens, UniProt P13569); settings: demonstrated earlier (15); cited from earlier work
Chain of wild-type CFTR (P13569 whole entry, species assumed): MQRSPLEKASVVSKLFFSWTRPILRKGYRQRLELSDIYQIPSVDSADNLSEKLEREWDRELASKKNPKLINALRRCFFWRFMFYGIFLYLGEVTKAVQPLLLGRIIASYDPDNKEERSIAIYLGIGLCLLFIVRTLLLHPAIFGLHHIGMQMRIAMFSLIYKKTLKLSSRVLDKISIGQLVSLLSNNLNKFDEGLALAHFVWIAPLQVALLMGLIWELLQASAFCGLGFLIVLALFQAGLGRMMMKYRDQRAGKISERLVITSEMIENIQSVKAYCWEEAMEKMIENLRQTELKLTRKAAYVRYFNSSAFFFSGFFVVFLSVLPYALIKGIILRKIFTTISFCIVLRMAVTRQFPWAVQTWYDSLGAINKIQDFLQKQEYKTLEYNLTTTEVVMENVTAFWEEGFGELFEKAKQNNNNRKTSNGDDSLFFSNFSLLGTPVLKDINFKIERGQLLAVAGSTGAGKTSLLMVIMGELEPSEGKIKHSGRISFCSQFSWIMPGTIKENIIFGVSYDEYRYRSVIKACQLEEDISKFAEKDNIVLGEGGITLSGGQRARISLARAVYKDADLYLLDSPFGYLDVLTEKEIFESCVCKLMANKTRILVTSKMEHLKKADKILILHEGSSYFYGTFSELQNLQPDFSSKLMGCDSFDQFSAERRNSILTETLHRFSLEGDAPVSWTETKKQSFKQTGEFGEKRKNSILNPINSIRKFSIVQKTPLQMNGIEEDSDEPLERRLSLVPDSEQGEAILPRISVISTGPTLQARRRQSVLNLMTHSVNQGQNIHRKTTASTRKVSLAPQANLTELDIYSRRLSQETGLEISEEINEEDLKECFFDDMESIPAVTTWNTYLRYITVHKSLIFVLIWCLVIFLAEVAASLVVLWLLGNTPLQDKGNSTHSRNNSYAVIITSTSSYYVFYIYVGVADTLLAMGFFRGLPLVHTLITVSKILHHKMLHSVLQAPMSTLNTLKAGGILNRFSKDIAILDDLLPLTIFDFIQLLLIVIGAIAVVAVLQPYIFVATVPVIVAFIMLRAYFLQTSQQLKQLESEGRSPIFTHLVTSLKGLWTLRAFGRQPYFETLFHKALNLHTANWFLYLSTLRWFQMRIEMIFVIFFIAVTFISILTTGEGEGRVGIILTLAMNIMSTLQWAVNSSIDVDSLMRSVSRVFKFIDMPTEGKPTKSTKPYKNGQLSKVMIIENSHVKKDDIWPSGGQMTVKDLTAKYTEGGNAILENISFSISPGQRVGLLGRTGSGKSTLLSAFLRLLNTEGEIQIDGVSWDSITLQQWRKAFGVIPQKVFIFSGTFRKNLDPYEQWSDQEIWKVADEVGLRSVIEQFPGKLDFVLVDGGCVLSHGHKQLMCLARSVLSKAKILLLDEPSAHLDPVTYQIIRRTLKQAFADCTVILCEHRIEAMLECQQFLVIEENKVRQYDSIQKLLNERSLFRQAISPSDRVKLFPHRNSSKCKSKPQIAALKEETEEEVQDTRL

CFTR = CFTR (Mus musculus, UniProt P26361); experiment: Forskolin-stimulated iodide efflux in vascular smooth muscle cells; assay type: cell-based; design: mesenteric artery segments were isolated, cut into small pieces and digested with trypsin, collagenase and elastase; endogenous in cells; host or cells: primary mesenteric artery vascular smooth muscle cells; settings: primary vascular smooth muscle cells; 48 h TNF 10 ng/ml + C18 6 μmol/L for last 24 h
Chain of CFTR (P26361 whole entry): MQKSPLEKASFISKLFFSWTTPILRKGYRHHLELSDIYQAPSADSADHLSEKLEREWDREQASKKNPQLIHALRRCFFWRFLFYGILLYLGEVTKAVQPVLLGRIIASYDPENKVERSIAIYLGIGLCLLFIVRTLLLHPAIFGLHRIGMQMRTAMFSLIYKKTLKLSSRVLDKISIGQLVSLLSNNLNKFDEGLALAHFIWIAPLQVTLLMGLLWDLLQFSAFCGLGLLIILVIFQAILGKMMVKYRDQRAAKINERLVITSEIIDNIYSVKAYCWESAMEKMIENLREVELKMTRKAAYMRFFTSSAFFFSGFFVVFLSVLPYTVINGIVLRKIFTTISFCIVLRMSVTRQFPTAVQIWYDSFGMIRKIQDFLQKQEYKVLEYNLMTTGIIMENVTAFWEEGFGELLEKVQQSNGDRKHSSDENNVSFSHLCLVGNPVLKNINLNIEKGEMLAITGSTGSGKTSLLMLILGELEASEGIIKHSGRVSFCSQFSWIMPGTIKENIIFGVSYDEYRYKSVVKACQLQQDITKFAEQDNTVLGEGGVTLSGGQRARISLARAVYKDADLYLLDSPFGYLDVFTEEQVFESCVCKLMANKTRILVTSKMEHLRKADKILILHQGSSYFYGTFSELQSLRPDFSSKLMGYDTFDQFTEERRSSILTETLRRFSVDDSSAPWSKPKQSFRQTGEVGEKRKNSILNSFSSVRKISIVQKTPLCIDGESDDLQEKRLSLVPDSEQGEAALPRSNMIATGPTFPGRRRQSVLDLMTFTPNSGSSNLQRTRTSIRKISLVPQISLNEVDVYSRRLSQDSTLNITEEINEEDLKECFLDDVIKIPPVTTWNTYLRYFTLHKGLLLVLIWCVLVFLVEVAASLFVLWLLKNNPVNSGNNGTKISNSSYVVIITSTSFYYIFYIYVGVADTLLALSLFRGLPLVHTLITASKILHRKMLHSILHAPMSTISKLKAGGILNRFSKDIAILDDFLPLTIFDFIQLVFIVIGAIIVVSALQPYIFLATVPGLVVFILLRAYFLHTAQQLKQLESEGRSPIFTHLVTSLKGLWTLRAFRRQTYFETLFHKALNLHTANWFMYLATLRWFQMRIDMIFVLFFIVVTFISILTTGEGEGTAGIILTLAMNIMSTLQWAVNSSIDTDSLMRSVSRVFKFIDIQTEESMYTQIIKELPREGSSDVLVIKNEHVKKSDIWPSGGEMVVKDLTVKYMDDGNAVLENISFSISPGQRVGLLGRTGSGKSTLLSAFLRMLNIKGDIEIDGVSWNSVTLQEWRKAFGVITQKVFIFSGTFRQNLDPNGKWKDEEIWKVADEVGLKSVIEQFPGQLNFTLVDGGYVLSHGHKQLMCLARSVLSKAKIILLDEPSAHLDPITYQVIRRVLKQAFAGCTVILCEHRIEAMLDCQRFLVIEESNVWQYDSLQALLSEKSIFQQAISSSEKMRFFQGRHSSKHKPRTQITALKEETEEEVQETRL
Description: Procedures for isolating and culturing mesenteric artery smooth muscle cells were carried out as described in (10). Briefly, mesenteric artery segments were isolated, cut into small pieces and digested with trypsin, collagenase and elastase. The resulting cell suspension was washed several times in phosphate-buffered saline and plated in Dulbecco's Modified Eagle Medium (DMEM) culture media containing 10% fetal bovine serum and 1% penicillin-streptomycin. Cell cultures were maintained at 37° C. with 5% CO2 and split at 106 cells seeding density. […]
Iodide efflux measurements were conducted as previously described (18). […] Supernatant iodide levels were quantified with an iodide-selective electrode (Lazar Research Laboratories; Los Angeles, USA), calibrated with Nal standards. Pre-stimulation iodide levels were determined and then cells were stimulated with a cocktail containing 10 μmol/L forskolin, 1 mmol/L isobutylmethylxanthine and 100 μmol/L cpt-cAMP (in 1% v/v DMSO). […] Supernatant iodide levels were determined over seven consecutive 1-minute intervals post-stimulation. […] The maximum efflux rate, therefore, was calculated using the measured efflux level between 60-120 seconds post-stimulation (18).

- log EC50 of phenylephrine response ([1]; posterior cerebral arteries, HF+C18 group, log scale): −5.94±0.21
SMILES: O=C(Nc1ncc(C(c2ccccc2Cl)N2CCC(O)C2)s1)C1(c2ccc3c(c2)OCO3)CC1 (centres unmarked) [C18, 1-(benzo[d][1,3]dioxol-5-yl)-N-(5-((2-chlorophenyl)(3-hydroxypyrrolidin-1-yl)methyl)thiazol-2-yl)cyclopropanecarboxamide]
- phenylephrine dose-response relationship ([1]; posterior cerebral arteries from CFTR knockout mice, 3 mg/kg i.p. daily for 2 days, 3 mg/kg): not affected; also recorded: does not alter
- phenylephrine dose-response relationship normalized to basal tone, HF vs HF+C18 ([1]; posterior cerebral arteries from HF mice, 3 mg/kg i.p. daily for 2 days, 3 mg/kg): curves overlap; also recorded: not significantly different
- phenylephrine dose-response relationship (tone), HF vs HF+C18 ([1]; posterior cerebral arteries from HF mice, 3 mg/kg i.p. daily for 2 days, not normalized, 3 mg/kg): significant difference
- phenylephrine responses ([1]; posterior cerebral arteries from sham-operated mice, 3 mg/kg i.p. daily for 2 days, 3 mg/kg): does not affect; also recorded: does not alter
- cerebral edema (T2 relaxation times) (mice with heart failure): neither HF nor C18 treatment in the context of HF induces evident edema; also recorded: does not induce edema; also recorded: Neither HF nor C18 treatment in HF mice induces an alteration
- interaction with wild-type CFTR / CFTR expression at the plasma membrane (wild-type CFTR): directly interacts with and stabilizes wild-type CFTR
- forskolin-stimulated iodide efflux after TNF (CFTR): fully restores; also recorded: normalization
